# Counter-ions that a name gives are not always drawn.
# Columns and labels:
# Candida albicans (yeast) = experiment: Minimum inhibitory concentration, fungistatic activity; assay type: cell-based; conditions: Table III: Active Ingredient MIC
# Staphylococcus aureus = experiment: Minimum inhibitory concentration, bacteriostatic activity; assay type: cell-based; conditions: Table III: Active Ingredient MIC
# Pseudomonas aeruginosa = experiment: as above; assay type: cell-based; conditions: Table III: Active Ingredient MIC
# Escherichia coli = experiment: as above; assay type: cell-based; conditions: Table III: Active Ingredient MIC
# Aspergillus niger = experiment: Minimum inhibitory concentration, fungistatic activity; assay type: cell-based; conditions: Table III: Active Ingredient MIC
# Aureobasidium pullulans = experiment: as above; assay type: cell-based; conditions: Table III: Active Ingredient MIC
# Solubility in H2O = assay type: physicochemical; conditions: water
# Echerichia coli (E.c.) = experiment: Zone of inhibition, polyvinyl chloride film discs on inoculated agar; assay type: cell-based; conditions: for Zone of Inhibition: PVC film; for Zones: PVC
# Procedure: (§1) In a two-liter, three-necked, round-bottom, flask equipped with a mechanical stirrer was placed 100 g of polyvinyl chloride, 590 g of reagent grade tetrahydrofuran, and 40.0 g of dioctylphthalate. This was stirred with gentle heating (35°-40° C.) for two hours to completely dissolve the polyvinyl chloride. Then, a barium/calcium salt of a fatty acid (3.5 g), a phosphite chelating agent (1.5 g), stearic Acid (0.25 g) and epoxidized soy bean oil (7.5 g), were mixed with 21 g of tetrahydrofuran and added to the polyvinyl chloride solution. After stirring at room temperature for 30 minutes, the solution was ready for use.
# (§2) Films containing the isothiazolones were cast by first preparing a 0.5 weight percent polyvinyl chloride solution by adding the isothiazolone to the polyvinyl chloride solution. Then, portions of the 0.5% solution were diluted to 0.1 and 0.05%. The films were drawn down on 12"×12" glass plates using a 50 mil-3" wide coating bar and the films were allowed to air dry for 48 hours.
# (§3) The films were cut into 1.25 cm discs and placed in agar plates inoculated with Staphlococcus aureus (S.a) or Echerichia coli (E.c.).
# [1] = test system: Staphlococcus aureus (S.a); experiment: as above; assay type: cell-based; conditions: for Zone of Inhibition: PVC film; for Zones: PVC
# Procedure: as §1, §2, §3
# [2] = test system: Aerobasidium pullulans (A.p); experiment: Growth of fungus on polyvinyl chloride film; assay type: cell-based; set-up: key: 0: zero (no growth); 5: five (heavy growth); conditions: PVC film
# Procedure: as §1, §2
# (§4) In addition to zones of inhibition, the films were observed by growth of fungus on the film and rated from zero (no growth) to five (heavy growth).
# Aspergillis niger (A.n.) [3] = experiment: Growth of fungus on polyvinyl chloride film; assay type: cell-based; set-up: key: 0: zero (no growth); 5: five (heavy growth); conditions: PVC film
# Procedure: as §1, §2, §4
# Aspergillis niger (A.n.) [4] = experiment: Zone of inhibition, polyvinyl chloride film; assay type: cell-based; conditions: PVC film
# [5] = test system: Aerobasidium pullulans (A.p); experiment: Zone of inhibition, polyvinyl chloride film; assay type: cell-based; conditions: PVC film
# S.a. = experiment: Zone of inhibition, silicone rubber film discs on inoculated agar; assay type: cell-based, Staphlococcus aureus; conditions: S.a.; for Zone of Inhibition: silicone rubber film; for Zones: Silicone
# Excerpt: as §3
# (§5) The films were cut into discs and tested as in example one against S.a. and E.c.
# E.c. = experiment: as above; assay type: cell-based, Echerichia coli; conditions: for Zone of Inhibition: silicone rubber film; for Zones: Silicone
# Excerpt: as §3, §5
# [6] = test system: Pseudomonas aeruginosa (P.a.); experiment: Zone of inhibition, polyvinyl chloride (vinyl) film discs; assay type: cell-based; conditions: PVC
# Procedure: as §1, §3
# Discs were tested against Pseudomonas aeruginosa (P.a.). The 1.0% films gave a slight zone of inhibition while the 5.0% film gave a 1 mm zone of inhibition.
# P.a. = experiment: Zone of inhibition, silicone film; assay type: cell-based, Pseudomonas aeruginosa
compound,measurement,setting,value
O=c1cc(Cl)sn1Cc1ccc(Cl)cc1 [5-chloro-2-(p-chlorobenzyl)-4-isothiazolin-3-one],MIC,Candida albicans (yeast),4 µg/mL
same,MIC,Staphylococcus aureus,4 µg/mL
same,MIC,Pseudomonas aeruginosa,8 µg/mL
same,MIC,Escherichia coli,8 µg/mL
same,MIC,Aspergillus niger,4 µg/mL
same,MIC,Aureobasidium pullulans,8 µg/mL
"O=c1c(Cl)c(Cl)sn1Cc1ccccc1 [Compound 2, 4,5-Dichloro-N--benzyl-isothiazolin-3-one]",solubility,Solubility in H2O,195 µg/mL
same,Zone of Inhibition,Echerichia coli (E.c.); 0.05%,0 mm
same,Zone of Inhibition,Echerichia coli (E.c.); 0.1%,0 mm
same,Zone of Inhibition,Echerichia coli (E.c.); 0.5%,3.3 mm
same,Zone of Inhibition,[1]; 0.05%,2.0 mm
same,Zone of Inhibition,[1]; 0.1%,3.8 mm
same,Growth on Film,[2]; 0.05%,4
same,Growth on Film,[2]; 0.1%,0
same,Growth on Film,[2]; 0.5%,0
same,Growth on Film,Aspergillis niger (A.n.) [3]; 0.05%,4
same,Growth on Film,Aspergillis niger (A.n.) [3]; 0.1%,0
same,Growth on Film,Aspergillis niger (A.n.) [3]; 0.5%,0
same,Zone of Inhibition,Aspergillis niger (A.n.) [4]; 0.05%,0 mm
same,Zone of Inhibition,Aspergillis niger (A.n.) [4]; 0.1%,0 mm
same,Zone of Inhibition,Aspergillis niger (A.n.) [4]; 0.5%,4.3 mm
same,Zone of Inhibition,[5]; 0.05%,0 mm
same,Zone of Inhibition,[5]; 0.1%,0 mm
same,Zone of Inhibition,[5]; 0.5%,4.8 mm
"O=c1c(Cl)c(Cl)sn1CCc1ccccc1 [Compound 3, 4,5-Dichloro-N-- 2-phenethyl-isothiazolin-3-one]",solubility,Solubility in H2O,96 µg/mL
same,Zone of Inhibition,Echerichia coli (E.c.); 0.05%,0 mm
same,Zone of Inhibition,Echerichia coli (E.c.); 0.1%,0 mm
same,Zone of Inhibition,Echerichia coli (E.c.); 0.5%,1.8 mm
same,Zone of Inhibition,[1]; 0.05%,1.8 mm
same,Zone of Inhibition,[1]; 0.1%,4.3 mm
same,Zone of Inhibition,[1]; 0.5%,10.8 mm
same,Growth on Film,[2]; 0.05%,2
same,Growth on Film,[2]; 0.1%,0
same,Growth on Film,[2]; 0.5%,0
same,Growth on Film,Aspergillis niger (A.n.) [3]; 0.05%,1
same,Growth on Film,Aspergillis niger (A.n.) [3]; 0.1%,0
same,Growth on Film,Aspergillis niger (A.n.) [3]; 0.5%,0
same,Zone of Inhibition,Aspergillis niger (A.n.) [4]; 0.05%,0 mm
same,Zone of Inhibition,Aspergillis niger (A.n.) [4]; 0.1%,0 mm
same,Zone of Inhibition,Aspergillis niger (A.n.) [4]; 0.5%,4.8 mm
same,Zone of Inhibition,[5]; 0.05%,0 mm
same,Zone of Inhibition,[5]; 0.1%,0 mm
same,Zone of Inhibition,[5]; 0.5%,3.8 mm
"CCCCCCn1sc(Cl)c(Cl)c1=O [Compound 4, 4,5-Dichloro-N--n-hexyl-isothiazolin-3-one]",solubility,Solubility in H2O,143 µg/mL
same,Zone of Inhibition,Echerichia coli (E.c.); 0.05%,0 mm
same,Zone of Inhibition,Echerichia coli (E.c.); 0.1%,0 mm
same,Zone of Inhibition,Echerichia coli (E.c.); 0.5%,0.8 mm
same,Zone of Inhibition,[1]; 0.05%,1.3 mm
same,Zone of Inhibition,[1]; 0.1%,2.3 mm
same,Zone of Inhibition,[1]; 0.5%,9.3 mm
same,Growth on Film,[2]; 0.05%,3
same,Growth on Film,[2]; 0.1%,0
same,Growth on Film,[2]; 0.5%,0
same,Growth on Film,Aspergillis niger (A.n.) [3]; 0.05%,0
same,Growth on Film,Aspergillis niger (A.n.) [3]; 0.1%,0
same,Growth on Film,Aspergillis niger (A.n.) [3]; 0.5%,0
same,Zone of Inhibition,Aspergillis niger (A.n.) [4]; 0.05%,0 mm
same,Zone of Inhibition,Aspergillis niger (A.n.) [4]; 0.1%,0 mm
same,Zone of Inhibition,Aspergillis niger (A.n.) [4]; 0.5%,3.8 mm
same,Zone of Inhibition,[5]; 0.05%,0 mm
same,Zone of Inhibition,[5]; 0.1%,0 mm
same,Zone of Inhibition,[5]; 0.5%,2.8 mm
"CCCCCCCCn1sc(Cl)c(Cl)c1=O [Compound 5, 4,5-Dichloro-N--n-octyl-isothiazolin-3-one]",Zone of Inhibition,S.a.; Conc. 10,0 mm
same,Zone of Inhibition,S.a.; Conc. 100,1.8 mm
same,Zone of Inhibition,S.a.; Conc. 1000,8.8 mm
same,MIC,Candida albicans (yeast),5 µg/mL
same,MIC,Staphylococcus aureus,4 µg/mL
same,MIC,Pseudomonas aeruginosa,16 µg/mL
same,Zone of Inhibition,Echerichia coli (E.c.); 0.05%,0 mm
same,Zone of Inhibition,Echerichia coli (E.c.); 0.1%,0 mm
same,Zone of Inhibition,Echerichia coli (E.c.); 0.5%,0 mm
same,Zone of Inhibition,[1]; 0.05%,0 mm
same,Zone of Inhibition,[1]; 0.1%,0.3 mm
same,Zone of Inhibition,[1]; 0.5%,3.3 mm
same,MIC,Escherichia coli,16 µg/mL
same,Zone of Inhibition,E.c.; Conc. 10,0 mm
same,Zone of Inhibition,E.c.; Conc. 100,0 mm
same,Zone of Inhibition,E.c.; Conc. 1000,0.8 mm
same,Growth on Film,[2]; 0.05%,5
same,Growth on Film,[2]; 0.1%,3
same,Growth on Film,[2]; 0.5%,1
same,Growth on Film,Aspergillis niger (A.n.) [3]; 0.05%,5
same,Growth on Film,Aspergillis niger (A.n.) [3]; 0.1%,3
same,Growth on Film,Aspergillis niger (A.n.) [3]; 0.5%,0
same,MIC,Aspergillus niger,9 µg/mL
same,MIC,Aureobasidium pullulans,5 µg/mL
same,Zone of Inhibition,Aspergillis niger (A.n.) [4]; 0.05%,0 mm
same,Zone of Inhibition,Aspergillis niger (A.n.) [4]; 0.1%,0 mm
same,Zone of Inhibition,Aspergillis niger (A.n.) [4]; 0.5%,0 mm
same,Zone of Inhibition,[5]; 0.05%,0 mm
same,Zone of Inhibition,[5]; 0.1%,0 mm
same,Zone of Inhibition,[5]; 0.5%,0 mm
"CCCCCCCn1sc(Cl)c(Cl)c1=O [Compound 6, 4,5-Dichloro-N--n-heptyl-isothiazolin-3-one]",solubility,Solubility in H2O,25 µg/mL
same,Zone of Inhibition,Echerichia coli (E.c.); 0.05%,0 mm
same,Zone of Inhibition,Echerichia coli (E.c.); 0.1%,0 mm
same,Zone of Inhibition,Echerichia coli (E.c.); 0.5%,0 mm
same,Zone of Inhibition,[1]; 0.05%,0 mm
same,Zone of Inhibition,[1]; 0.1%,1.3 mm
same,Zone of Inhibition,[1]; 0.5%,4.3 mm
same,Growth on Film,[2]; 0.05%,3
same,Growth on Film,[2]; 0.1%,2
same,Growth on Film,[2]; 0.5%,0
same,Growth on Film,Aspergillis niger (A.n.) [3]; 0.05%,0
same,Growth on Film,Aspergillis niger (A.n.) [3]; 0.1%,0
same,Growth on Film,Aspergillis niger (A.n.) [3]; 0.5%,0
same,Zone of Inhibition,Aspergillis niger (A.n.) [4]; 0.05%,0 mm
same,Zone of Inhibition,Aspergillis niger (A.n.) [4]; 0.1%,0 mm
same,Zone of Inhibition,Aspergillis niger (A.n.) [4]; 0.5%,0 mm
same,Zone of Inhibition,[5]; 0.05%,3 mm
same,Zone of Inhibition,[5]; 0.1%,1 mm
same,Zone of Inhibition,[5]; 0.5%,0 mm
"CCN1CCN(C(=O)N[C@@H](C(=O)N[C@@H]2C(=O)N3[C@@H]2SC(C)(C)[C@@H]3C(=O)O)c2ccccc2)C(=O)C1=O [P, Piperacillin Na, reference compound]",Zones,S.a.; 1.0%,14.8 mm
same,Zones,S.a.; 5.0%,21.3 mm
same,Zones,S.a.; .04%,0 mm
same,Zones,S.a.; .20%,0 mm
same,Zones,[6]; 1.0%,0 mm
same,Zones,[6]; 5.0%,9.8 mm
same,Zones,[6]; .04%,0 mm
same,Zones,[6]; .20%,0 mm
same,Zones,Echerichia coli (E.c.); 1.0%,0 mm
same,Zones,Echerichia coli (E.c.); .04%,0 mm
same,Zones,Echerichia coli (E.c.); .20%,0 mm
same,Zones,[1]; 1.0%,slight
same,Zones,[1]; 5.0%,13.8 mm
same,Zones,[1]; .04%,0 mm
same,Zones,[1]; .20%,0 mm
same,Zones,E.c.; 1.0%,13.3 mm
same,Zones,E.c.; 5.0%,17.3 mm
same,Zones,E.c.; .04%,0 mm
same,Zones,E.c.; .20%,0.8 mm
same,Zones,P.a.; 1.0%,5.3 mm
same,Zones,P.a.; 5.0%,13.3 mm
same,Zones,P.a.; .04%,0 mm
same,Zones,P.a.; .20%,0 mm
"CN(C)C1C(=O)C(C(N)=O)=C(O)C2(O)C(=O)C3=C(O)c4c(O)cccc4C(C)(O)C3CC12 (stereo not drawn) [T, Tetracycline HCl, reference compound]",Zones,S.a.; 1.0%,21.3 mm
same,Zones,S.a.; 5.0%,26.3 mm
same,Zones,S.a.; .04%,6.3 mm
same,Zones,S.a.; .20%,15.8 mm
same,Zones,[6]; 1.0%,0 mm
same,Zones,[6]; 5.0%,0 mm
same,Zones,[6]; .04%,0 mm
same,Zones,[6]; .20%,0 mm
same,Zones,Echerichia coli (E.c.); 1.0%,0 mm
same,Zones,Echerichia coli (E.c.); .04%,0 mm
same,Zones,Echerichia coli (E.c.); .20%,5.8 mm
same,Zones,[1]; 1.0%,11.3 mm
same,Zones,[1]; 5.0%,19.8 mm
same,Zones,[1]; .04%,0 mm
same,Zones,[1]; .20%,0 mm
same,Zones,E.c.; 1.0%,9.8 mm
same,Zones,E.c.; 5.0%,19.8 mm
same,Zones,E.c.; .04%,0 mm
same,Zones,E.c.; .20%,5.8 mm
same,Zones,P.a.; 1.0%,0 mm
same,Zones,P.a.; 5.0%,0 mm
same,Zones,P.a.; .20%,0.3 mm
Gentamycin sulfate [reference compound],Zones,[6]; 5.0%,6.8 mm
same,Zones,[6]; .04%,0 mm
same,Zones,[6]; .20%,3.3 mm
same,Zones,Echerichia coli (E.c.); 5.0%,9.3 mm
same,Zones,Echerichia coli (E.c.); .04%,0 mm
same,Zones,[1]; .04%,slight

# Source: patent publication US4542169A, “Biomedical devices containing isothiazolones to control bacteria growth” (Rohm and Haas Company, priority 1983, dated 1985)
